From patent US20190382396A1, “SALTS OF BICYCLO[1.1.1]PENTANE INHIBITORS OF DUAL LEUCINE ZIPPER (DLK) KINASE FOR THE TREATMENT OF DISEASE” (Board of Regents, The University of Texas System, priority 2018, published 2019)
Where two headings read alike, the source gives them in different places. One block for each compound: values may come before it.

Legend:
Assay type in all cases: physicochemical
[1] = Solubility in physiologically relevant solutions (SGF, FaSSIF, FeSSIF); conditions: 25±0.5° C.; for solubility at 24 h: 25 °C, thermodynamic from solid
Description: Solubility of the free base 1 and the selected salts 8, 9, 10, and 11 in physiologically relevant solutions were examined. For each material, aliquots were added to 2 ml vials containing 500 uL of either SGF, FaSSIF, or FeSSIF, which were then sealed. The mixtures were kept shaking by thermomixer at 700 rpm, 25±0.5° C. for 24 h to facilitate the dissolution and then centrifuged by 96-well plates at 3000 rpm for 2 min. The filter liquors were diluted with diluents (ACN/water, 50/50) and analyzed by HPLC.

[2] = Stability (50° C., 40° C./75% RH, light; 1 week); conditions: for XRPD change? / purity: bulk, 1 week; for initial purity: initial (before storage)
Description: The stability of the free base 1 and the selected salts 8, 9, 10, and 11 was evaluated. For each material, aliquots were set up at each of conditions (50° C., 40° C./75% RH, light) at given time points (initial and 1 week). PXRD diffractograms of the hydrogen fumarate salt 11 is shown in FIG. 17, with trace (a) showing the initial salt, trace (b) showing the salt after light treatment, trace (c) showing the salt after storage at 40° C. and 75% relative humidity for 1 week, and (d) showing the salt after storage at 50° C. for 1 week.

[3] = Dynamic vapor sorption (DVS), hygroscopicity; conditions: for Maximum sorption / Hygroscopicity (0-40% RH) / Hygroscopicity (0-90% RH) / Change in mass, Desorption / Change in mass, Sorption / Change in mass, Hysteresis: DVS; for Maximum sorption / Hygroscopicity (0-40% RH) / Hygroscopicity (0-90% RH): 25° C.; for Hygroscopicity; form change: form change after DVS
Description: Dynamic vapor sorption (“DVS”) was performed at 25° C., using approx 10-15 mg of sample and N2 gas at a flow rate of 200 mL/min, dm/dt=0.01% min, minimum dm/dt stability duration of 10 min, max equilibration time of 180 min, drying at 0% RH for 120 min, scanning from 0% RH to 90% RH to 0% RH with a step size of 10% RH.
Total cycling time varied, but in all cases was about 200-250 min.

[4] = simulated gastric fluid, SGF, read-out: Solubility SGF Conc
[5] = FaSSIF, read-out: Solubility FaSSIF Conc
[6] = FeSSIF, read-out: Solubility FeSSIF Conc

solubility at 24 h [1, 4]: 6330 µg/mL
solubility at 24 h [1, 5]: 113 µg/mL
solubility at 24 h [1, 6]: 773 µg/mL
FaSSIF pH after 24 h ([1]; FaSSIF): 5.53
FeSSIF pH after 24 h ([1]; FeSSIF): 4.86
SGF pH after 24 h ([1]; SGF): 3.26
XRPD change? ([2]; 40° C., 75% RH): no
purity ([2]; 40° C., 75% RH): 99.41%
XRPD change? ([2]; 50° C.): no
purity ([2]; 50° C.): 98.91%
initial purity [2]: 99.58%
XRPD change? ([2]; light): no
purity ([2]; light): 99.44%
Maximum sorption [3]: 0.60%
Hygroscopicity (0-40% RH) [3]: 0.17%
Hygroscopicity (0-90% RH) [3]: 0.6%
Change in mass, Desorption ([3]; Target % P/P0 0.0): 0.0373%
Change in mass, Sorption ([3]; Target % P/P0 0.0): 0.0000%
Change in mass, Desorption ([3]; Target % P/P0 10.0): 0.0913%
Change in mass, Hysteresis ([3]; Target % P/P0 10.0): 0.0426%
Change in mass, Sorption ([3]; Target % P/P0 10.0): 0.0487%
Change in mass, Desorption ([3]; Target % P/P0 20.0): 0.1293%
Change in mass, Hysteresis ([3]; Target % P/P0 20.0): 0.0411%
Change in mass, Sorption ([3]; Target % P/P0 20.0): 0.0882%
Change in mass, Desorption ([3]; Target % P/P0 30.0): 0.1757%
Change in mass, Hysteresis ([3]; Target % P/P0 30.0): 0.0502%
Change in mass, Sorption ([3]; Target % P/P0 30.0): 0.1255%
Change in mass, Desorption ([3]; Target % P/P0 40.0): 0.2145%
Change in mass, Hysteresis ([3]; Target % P/P0 40.0): 0.0418%
Change in mass, Sorption ([3]; Target % P/P0 40.0): 0.1727%
Change in mass, Desorption ([3]; Target % P/P0 50.0): 0.2609%
Change in mass, Hysteresis ([3]; Target % P/P0 50.0): 0.0418%
Change in mass, Sorption ([3]; Target % P/P0 50.0): 0.2191%
Change in mass, Desorption ([3]; Target % P/P0 60.0): 0.3119%
Change in mass, Hysteresis ([3]; Target % P/P0 60.0): 0.0388%
Change in mass, Sorption ([3]; Target % P/P0 60.0): 0.2731%
Change in mass, Desorption ([3]; Target % P/P0 70.0): 0.3743%
Change in mass, Hysteresis ([3]; Target % P/P0 70.0): 0.0320%
Change in mass, Sorption ([3]; Target % P/P0 70.0): 0.3423%
Change in mass, Desorption ([3]; Target % P/P0 80.0): 0.4565%
Change in mass, Hysteresis ([3]; Target % P/P0 80.0): 0.0228%
Change in mass, Sorption ([3]; Target % P/P0 80.0): 0.4336%
Change in mass, Desorption ([3]; Target % P/P0 90.0): 0.6040%
Change in mass, Sorption ([3]; Target % P/P0 90.0): 0.6040%
Hygroscopicity; form change [3]: no change
SMILES: CC(C)c1nc(-c2cnc(N)c(OC(F)(F)F)c2)cn1C12CC(N3CCOCC3)(C1)C2.O=C(O)CC(O)(CC(=O)O)C(=O)O [Example 8, 5-(2-isopropyl-1-(3-morpholinobicyclo[1.1.1]pentan-1-yl)-1H-imidazol-4-yl)-3-(trifluoromethoxy)pyridin-2-amine dihydrogen citrate]

solubility at 24 h [1, 4]: 13400 µg/mL
solubility at 24 h [1, 5]: 113 µg/mL
solubility at 24 h [1, 6]: 565 µg/mL
FaSSIF pH after 24 h ([1]; FaSSIF): 5.65
FeSSIF pH after 24 h ([1]; FeSSIF): 4.90
SGF pH after 24 h ([1]; SGF): 3.26
XRPD change? ([2]; 40° C., 75% RH): no
purity ([2]; 40° C., 75% RH): 99.87%
XRPD change? ([2]; 50° C.): no
purity ([2]; 50° C.): 99.89%
initial purity [2]: 99.83%
XRPD change? ([2]; light): no
purity ([2]; light): 99.79%
Maximum sorption [3]: 0.27%
Hygroscopicity (0-40% RH) [3]: 0.07%
Hygroscopicity (0-90% RH) [3]: 0.27%
Change in mass, Desorption ([3]; Target % P/P0 0.0): −0.0030%
Change in mass, Sorption ([3]; Target % P/P0 0.0): 0.0000%
Change in mass, Desorption ([3]; Target % P/P0 10.0): 0.0196%
Change in mass, Hysteresis ([3]; Target % P/P0 10.0): 0.0015%
Change in mass, Sorption ([3]; Target % P/P0 10.0): 0.0181%
Change in mass, Desorption ([3]; Target % P/P0 20.0): 0.0354%
Change in mass, Hysteresis ([3]; Target % P/P0 20.0): 0.0038%
Change in mass, Sorption ([3]; Target % P/P0 20.0): 0.0317%
Change in mass, Desorption ([3]; Target % P/P0 30.0): 0.0573%
Change in mass, Hysteresis ([3]; Target % P/P0 30.0): 0.0151%
Change in mass, Sorption ([3]; Target % P/P0 30.0): 0.0422%
Change in mass, Desorption ([3]; Target % P/P0 40.0): 0.0747%
Change in mass, Hysteresis ([3]; Target % P/P0 40.0): 0.0090%
Change in mass, Sorption ([3]; Target % P/P0 40.0): 0.0656%
Change in mass, Desorption ([3]; Target % P/P0 50.0): 0.0950%
Change in mass, Hysteresis ([3]; Target % P/P0 50.0): 0.0136%
Change in mass, Sorption ([3]; Target % P/P0 50.0): 0.0814%
Change in mass, Desorption ([3]; Target % P/P0 60.0): 0.1199%
Change in mass, Hysteresis ([3]; Target % P/P0 60.0): 0.0158%
Change in mass, Sorption ([3]; Target % P/P0 60.0): 0.1041%
Change in mass, Desorption ([3]; Target % P/P0 70.0): 0.1516%
Change in mass, Hysteresis ([3]; Target % P/P0 70.0): 0.0189%
Change in mass, Sorption ([3]; Target % P/P0 70.0): 0.1327%
Change in mass, Desorption ([3]; Target % P/P0 80.0): 0.1938%
Change in mass, Hysteresis ([3]; Target % P/P0 80.0): 0.0151%
Change in mass, Sorption ([3]; Target % P/P0 80.0): 0.1787%
Change in mass, Desorption ([3]; Target % P/P0 90.0): 0.2655%
Change in mass, Sorption ([3]; Target % P/P0 90.0): 0.2655%
Hygroscopicity; form change [3]: no change
SMILES: CC(C)c1nc(-c2cnc(N)c(OC(F)(F)F)c2)cn1C12CC(N3CCOCC3)(C1)C2.O=C(O)/C=C\C(=O)O [Example 9, 5-(2-isopropyl-1-(3-morpholinobicyclo[1.1.1]pentan-1-yl)-1H-imidazol-4-yl)-3-(trifluoromethoxy)pyridin-2-amine hydrogen maleate]

solubility at 24 h [1, 4]: 7080 µg/mL
solubility at 24 h [1, 5]: 72.2 µg/mL
solubility at 24 h [1, 6]: 642 µg/mL
FaSSIF pH after 24 h ([1]; FaSSIF): 5.92
FeSSIF pH after 24 h ([1]; FeSSIF): 4.88
SGF pH after 24 h ([1]; SGF): 3.71
XRPD change? ([2]; 40° C., 75% RH): no
purity ([2]; 40° C., 75% RH): 100%
XRPD change? ([2]; 50° C.): no
purity ([2]; 50° C.): 100%
initial purity [2]: 99.74%
XRPD change? ([2]; light): no (2)
purity ([2]; light): 99.74%
Maximum sorption [3]: 0.30%
Hygroscopicity (0-40% RH) [3]: 0.05%
Hygroscopicity (0-90% RH) [3]: 0.3%
Change in mass, Desorption ([3]; Target % P/P0 0.0): 0.0514%
Change in mass, Sorption ([3]; Target % P/P0 0.0): 0.0000%
Change in mass, Desorption ([3]; Target % P/P0 10.0): 0.0647%
Change in mass, Hysteresis ([3]; Target % P/P0 10.0): 0.0496%
Change in mass, Sorption ([3]; Target % P/P0 10.0): 0.0151%
Change in mass, Desorption ([3]; Target % P/P0 20.0): 0.0727%
Change in mass, Hysteresis ([3]; Target % P/P0 20.0): 0.0487%
Change in mass, Sorption ([3]; Target % P/P0 20.0): 0.0239%
Change in mass, Desorption ([3]; Target % P/P0 30.0): 0.0930%
Change in mass, Hysteresis ([3]; Target % P/P0 30.0): 0.0611%
Change in mass, Sorption ([3]; Target % P/P0 30.0): 0.0319%
Change in mass, Desorption ([3]; Target % P/P0 40.0): 0.1081%
Change in mass, Hysteresis ([3]; Target % P/P0 40.0): 0.0549%
Change in mass, Sorption ([3]; Target % P/P0 40.0): 0.0532%
Change in mass, Desorption ([3]; Target % P/P0 50.0): 0.1267%
Change in mass, Hysteresis ([3]; Target % P/P0 50.0): 0.0541%
Change in mass, Sorption ([3]; Target % P/P0 50.0): 0.0727%
Change in mass, Desorption ([3]; Target % P/P0 60.0): 0.1489%
Change in mass, Hysteresis ([3]; Target % P/P0 60.0): 0.0514%
Change in mass, Sorption ([3]; Target % P/P0 60.0): 0.0975%
Change in mass, Desorption ([3]; Target % P/P0 70.0): 0.1790%
Change in mass, Hysteresis ([3]; Target % P/P0 70.0): 0.0523%
Change in mass, Sorption ([3]; Target % P/P0 70.0): 0.1267%
Change in mass, Desorption ([3]; Target % P/P0 80.0): 0.2233%
Change in mass, Hysteresis ([3]; Target % P/P0 80.0): 0.0292%
Change in mass, Sorption ([3]; Target % P/P0 80.0): 0.1941%
Change in mass, Desorption ([3]; Target % P/P0 90.0): 0.3013%
Change in mass, Sorption ([3]; Target % P/P0 90.0): 0.3013%
Hygroscopicity; form change [3]: no change
SMILES: CC(C)c1nc(-c2cnc(N)c(OC(F)(F)F)c2)cn1C12CC(N3CCOCC3)(C1)C2.O=C(O)CCC(=O)O [Example 10, 5-(2-isopropyl-1-(3-morpholinobicyclo[1.1.1]pentan-1-yl)-1H-imidazol-4-yl)-3-(trifluoromethoxy)pyridin-2-amine hydrogen succinate]
